Experimental data as given in patent US20100261219A1, “TEST METHOD OF BIOAVAILABILITY AND BIOEQUIVALENCE FOR XENOBIOTICS USING GENETIC PROFILING” (priority 2008, published 2010).
Where two headings read alike, the source gives them in different places.

What was measured:
[1] = in vivo; cited from earlier work

SMILES | t1/2 [1] | Concentration of risperidone in blood plasma: influence of genotype (genotype of CYP2D6*10) | Concentration of risperidone in blood plasma (participants with mutant type, 48 hours after dosing) | Concentration of risperidone in blood plasma (participants with only wild type, 24 hours after dosing) | Concentration of risperidone in blood plasma (wild type participants compared to heterozygous or mutant type (FIG. 7-9))
CCN(CC)CCCC(C)Nc1ccnc2cc(Cl)ccc12 (stereo not shown) [Chloroquine] | 41 days | – | – | – | –
CC/C(=C(\c1ccccc1)c1ccc(OCCN(C)C)cc1)c1ccccc1 [Tamoxifen] | 8 days | – | – | – | –
CC/C(=C(\c1ccccc1)c1ccc(OCCNC)cc1)c1ccccc1 [demethyltamoxifen] | 11 days | – | – | – | –
Cc1nc2n(c(=O)c1CCN1CCC(c3noc4cc(F)ccc34)CC1)CCCC2 [risperidone, Risperidone] | – | significantly varied | capable of being measured | reduced below a measurable level | considerably low
